Measured values taken from BindingDB's records for doi:10.1016/j.bioorg.2014.11.005 (Charles University In Prague, 2015).

Experiments:
[1] = target: Acetylcholinesterase (Electrophorus electricus, UniProt O42275); assay: Ellman's Method
[2] = target: Carboxylic ester hydrolase (Equus caballus, UniProt Q9N1N9); assay: Ellman's Method
Sequence of Carboxylic ester hydrolase (Q9N1N9 whole entry): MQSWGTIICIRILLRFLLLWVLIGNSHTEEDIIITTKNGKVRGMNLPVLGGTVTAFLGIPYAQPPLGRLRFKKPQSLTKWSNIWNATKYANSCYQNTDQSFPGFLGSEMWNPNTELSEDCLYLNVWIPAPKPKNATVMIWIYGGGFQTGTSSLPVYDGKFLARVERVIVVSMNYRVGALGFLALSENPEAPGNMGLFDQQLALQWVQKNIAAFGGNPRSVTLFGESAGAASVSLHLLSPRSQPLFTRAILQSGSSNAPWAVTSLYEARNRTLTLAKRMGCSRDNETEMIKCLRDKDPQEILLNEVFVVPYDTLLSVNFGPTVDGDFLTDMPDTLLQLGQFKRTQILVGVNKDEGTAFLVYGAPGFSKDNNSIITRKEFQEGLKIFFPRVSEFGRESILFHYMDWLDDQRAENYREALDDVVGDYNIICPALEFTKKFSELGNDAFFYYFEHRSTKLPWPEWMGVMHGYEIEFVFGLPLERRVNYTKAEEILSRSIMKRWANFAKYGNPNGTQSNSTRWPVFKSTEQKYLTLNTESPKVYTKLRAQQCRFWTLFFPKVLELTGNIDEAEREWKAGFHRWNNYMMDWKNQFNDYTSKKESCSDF

Sequence of Acetylcholinesterase (O42275 whole entry): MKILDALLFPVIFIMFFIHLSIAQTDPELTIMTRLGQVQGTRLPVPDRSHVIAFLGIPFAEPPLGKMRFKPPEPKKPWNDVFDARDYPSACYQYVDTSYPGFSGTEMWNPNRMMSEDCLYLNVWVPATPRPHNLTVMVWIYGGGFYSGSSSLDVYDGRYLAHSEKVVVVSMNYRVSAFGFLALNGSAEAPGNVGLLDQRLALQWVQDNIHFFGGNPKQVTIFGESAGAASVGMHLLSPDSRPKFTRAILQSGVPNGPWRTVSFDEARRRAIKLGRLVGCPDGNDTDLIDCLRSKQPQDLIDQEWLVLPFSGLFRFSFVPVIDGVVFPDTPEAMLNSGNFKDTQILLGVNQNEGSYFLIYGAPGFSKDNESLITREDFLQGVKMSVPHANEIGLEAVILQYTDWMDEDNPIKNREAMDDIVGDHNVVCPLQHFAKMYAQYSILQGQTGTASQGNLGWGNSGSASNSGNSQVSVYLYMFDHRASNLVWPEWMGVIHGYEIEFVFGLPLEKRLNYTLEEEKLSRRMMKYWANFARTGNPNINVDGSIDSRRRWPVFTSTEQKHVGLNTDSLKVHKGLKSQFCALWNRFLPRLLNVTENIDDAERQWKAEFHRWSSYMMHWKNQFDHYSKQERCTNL

CCOP(=O)(OCC)Oc1ccc(Cl)cc1C(=O)Nc1ccc(C(F)(F)F)cc1 [4‐chloro‐2‐{[4‐ (trifluoromethyl)phenyl]carbamoyl}phenyl diethyl  phosphate (18)]
IC50 [1]: 41.6 µM
IC50 [2]: 20.9 µM

CCOP(=O)(OCC)Oc1cc(Cl)ccc1C(=O)Nc1cccc(F)c1 [5-chloro-2-[(3-fluorophenyl)carbamoyl]phenyl diethyl phosphate (21)]
IC50 [1]: 60.2 µM
IC50 [2]: 11.5 µM

CCOP(=O)(OCC)Oc1cc(Cl)ccc1C(=O)Nc1cccc(C(F)(F)F)c1 [5-chloro-2-{[3-(trifluoromethyl)phenyl]carbamoyl}phenyl diethyl phosphate (26)]
IC50 [1]: 71.9 µM
IC50 [2]: 3.53 µM

CCOP(=O)(OCC)Oc1cc(Cl)ccc1C(=O)Nc1cccc(Br)c1 [2-[(3-bromophenyl)carbamoyl]-5-chlorophenyl diethyl phosphate (20)]
IC50 [1]: 35.4 µM
IC50 [2]: 1.77 µM

CCOP(=O)(OCC)Oc1ccc(Br)cc1C(=O)Nc1ccc(Cl)cc1 [4‐bromo‐2‐[(4‐chlorophenyl)carbamoyl]phenyl  diethyl phosphate (3)]
IC50 [1]: 45.5 µM
IC50 [2]: 19.9 µM

CCOP(=O)(OCC)Oc1ccc(Br)cc1C(=O)Nc1cccc(C(F)(F)F)c1 [4‐bromo‐2‐{[3‐ (trifluoromethyl)phenyl]carbamoyl}phenyl diethyl  phosphate (5)]
IC50 [1]: 46.1 µM
IC50 [2]: 14.3 µM

CCOP(=O)(OCC)Oc1ccc(Cl)cc1C(=O)Nc1ccc(Br)cc1 [2‐[(4‐bromophenyl)carbamoyl]‐4‐chlorophenyl  diethyl phosphate (14)]
IC50 [1]: 59.2 µM
IC50 [2]: 40.2 µM

CCOP(=O)(OCC)Oc1cc(Cl)ccc1C(=O)Nc1ccc(Br)cc1 [2-[(4-bromophenyl)carbamoyl]-5-chlorophenyl diethyl phosphate (23)]
IC50 [1]: 55.1 µM
IC50 [2]: 8.76 µM

CCOP(=O)(OCC)Oc1ccc(Br)cc1C(=O)Nc1cccc(Br)c1 [4‐bromo‐2‐[(3‐bromophenyl)carbamoyl]phenyl diethyl  phosphate (7)]
IC50 [1]: 70.3 µM
IC50 [2]: 18 µM

CCOP(=O)(OCC)Oc1ccc(Br)cc1C(=O)Nc1ccc(Cl)c(Cl)c1 [4‐bromo‐2‐[(3,4‐dichlorophenyl)carbamoyl]phenyl  diethyl phosphate (4)]
IC50 [1]: 55.2 µM
IC50 [2]: 49.6 µM

CCOP(=O)(OCC)Oc1ccc(Cl)cc1C(=O)Nc1cccc(Cl)c1 [4‐chloro‐2‐[(3‐chlorophenyl)carbamoyl]phenyl  diethyl phosphate (10)]
IC50 [1]: 64.3 µM
IC50 [2]: 28.1 µM

CCOP(=O)(OCC)Oc1ccc(Cl)cc1C(=O)Nc1cccc(F)c1 [4‐chloro‐2‐[(3‐fluorophenyl)carbamoyl]phenyl  diethyl phosphate (12)]
IC50 [1]: 61.1 µM
IC50 [2]: 31.6 µM

CCOP(=O)(OCC)Oc1cc(Cl)ccc1C(=O)Nc1ccc(Cl)c(Cl)c1 [5-chloro-2-[(3,4-dichlorophenyl)carbamoyl]phenyl diethyl phosphate (25)]
IC50 [1]: 45.5 µM
IC50 [2]: 0.903 µM

CCOP(=O)(OCC)Oc1ccc(Br)cc1C(=O)Nc1cccc(Cl)c1 [4‐bromo‐2‐[(3‐chlorophenyl)carbamoyl]phenyl  diethyl phosphate (2)]
IC50 [1]: 79.9 µM
IC50 [2]: 24.4 µM

CCOP(=O)(OCC)Oc1ccc(Cl)cc1C(=O)Nc1ccc(Cl)cc1 [4‐chloro‐2‐[(4‐chlorophenyl)carbamoyl]phenyl  diethyl phosphate (11)]
IC50 [1]: 60.9 µM
IC50 [2]: 42.1 µM

CCOP(=O)(OCC)Oc1ccc(Br)cc1C(=O)Nc1ccc(C(F)(F)F)cc1 [4‐bromo‐2‐{[4‐ (trifluoromethyl)phenyl]carbamoyl}phenyl diethyl  phosphate (6)]
IC50 [1]: 56.7 µM
IC50 [2]: 10.3 µM

CCOP(=O)(OCC)Oc1ccc(Cl)cc1C(=O)Nc1ccc(F)cc1 [4‐chloro‐2‐[(4‐fluorophenyl)carbamoyl]phenyl  diethyl phosphate (13)]
IC50 [1]: 48.5 µM
IC50 [2]: 20.5 µM

CCOP(=O)(OCC)Oc1cc(Cl)ccc1C(=O)Nc1cccc(Cl)c1 [5-chloro-2-[(3-chlorophenyl)carbamoyl]phenyl diethyl phosphate (19)]
IC50 [1]: 41.1 µM
IC50 [2]: 3.68 µM

CCOP(=O)(OCC)Oc1ccc(Cl)cc1C(=O)Nc1cccc(C(F)(F)F)c1 [4‐chloro‐2‐{[3‐ (trifluoromethyl)phenyl]carbamoyl}phenyl diethyl  phosphate (17)]
IC50 [1]: 51.5 µM
IC50 [2]: 24.8 µM

CCOP(=O)(OCC)Oc1cc(Cl)ccc1C(=O)Nc1ccc(C(F)(F)F)cc1 [5-chloro-2-{[4-(trifluoromethyl)phenyl]carbamoyl}phenyl diethyl phosphate (27)]
IC50 [1]: 86.3 µM
IC50 [2]: 9.84 µM

CCOP(=O)(OCC)Oc1ccc(Cl)cc1C(=O)Nc1cccc(Br)c1 [2‐[(3‐bromophenyl)carbamoyl]‐4‐chlorophenyl  diethyl phosphate (16)]
IC50 [1]: 63.3 µM
IC50 [2]: 16.9 µM

CCOP(=O)(OCC)Oc1cc(Cl)ccc1C(=O)Nc1ccc(Cl)cc1 [5-chloro-2-[(4-chlorophenyl)carbamoyl]phenyl diethyl phosphate (24)]
IC50 [1]: 60.9 µM
IC50 [2]: 5.01 µM

CCOP(=O)(OCC)Oc1ccc(Br)cc1C(=O)Nc1cccc(F)c1 [4‐bromo‐2‐[(3‐fluorophenyl)carbamoyl]phenyl  diethyl phosphate (1)]
IC50 [1]: 69.8 µM
IC50 [2]: 68.3 µM

CCOP(=O)(OCC)Oc1cc(Cl)ccc1C(=O)Nc1ccc(F)cc1 [5-chloro-2-[(4-fluorophenyl)carbamoyl]phenyl diethyl phosphate (22)]
IC50 [1]: 80.8 µM
IC50 [2]: 4.43 µM

CCOP(=O)(OCC)Oc1ccc(Br)cc1C(=O)Nc1ccc(F)cc1 [4‐bromo‐2‐[(4‐fluorophenyl)carbamoyl]phenyl  diethyl phosphate (9)]
IC50 [1]: 53.7 µM
IC50 [2]: 22.7 µM

CCOP(=O)(OCC)Oc1ccc(Br)cc1C(=O)Nc1ccc(Br)cc1 [4‐bromo‐2‐[(4‐bromophenyl)carbamoyl]phenyl diethyl  phosphate (8)]
IC50 [1]: 50.8 µM
IC50 [2]: 13 µM

CCOP(=O)(OCC)Oc1ccc(Cl)cc1C(=O)Nc1ccc(Cl)c(Cl)c1 [4‐chloro‐2‐[(3,4‐dichlorophenyl)carbamoyl]phenyl  diethyl phosphate (15)]
IC50 [1]: 80.9 µM
IC50 [2]: 40.3 µM
